Test results published in patent US20170119020A1, “METHOD OF FEEDING AN ANIMAL” (CARGILL, INCORPORATED, priority 2014, published 2017).

What was measured:
Ross 308 embryos = test: Embryonic mortality, hatchability and chick quality at hatch (Example 5); assay type: in vivo, chicken; conditions: for Chick length / Chick weight average / Chick weight dissected chicks / Liver weight / Relative asymmetry / YFBM (yolk free body mass) / Yolk weight: at hatch; for Chick length / Chick weight average / Chick weight dissected chicks / Liver weight / Relative asymmetry / YFBM (yolk free body mass) / Yolk weight / Egg weight EQ / Relative liver weight / Relative yolk weight / Relative chick weight: breeder diet; for Relative liver weight / Relative yolk weight: percentage of chick weight; for Relative chick weight: percentage of egg weight at EO; for Early Embryonic Mortality: E0-E7; for Mid Embryonic Mortality: E8-E18; for Late Embryonic Mortality: E19-E21
Method: For a period of six days, eggs were collected from the broiler breeder flock of Example 4 above. The eggs were stored based on breeder pen and storage day for an additional three days before the brooding period started. All eggs were incubated until hatch. All eggs were distributed over 24 trays and 6 blocks, with each block representing a storage day.
A total of 2160 eggs derived from the 37-38 week broiler breeders (Ross 308) of Example 4 were collected and stored in the egg storage unit of the broiler breeder facility. At the start of the incubation period, the eggs were weighed and allocated into blocks, each block representing a storage day. Each block consisted of 24 experimental units, with each experimental unit indicating a group of 15 eggs. Only intact eggs were included and eggs that were cracked, dirty or that had deformed shells were excluded from the trial.
The eggs were placed in a Nature Form NMC 2340 Incubator with automatic control of temperature and relative humidity. From E0 till E18 the eggs were placed in setter trolleys, which consist of two shelves with a capacity for 13 trays each. Each tray has three flats of 30 eggs each. During this period, the incubator start temperature was set at 37.5° C. and relative humidity at 54%.
After the setter period (E0-E18), eggs were transferred to baskets in the hatchers based on the blocking and tray structure in the setter. The eggs were placed into subdivisions of a hatching crate (per experimental unit of 15 eggs), and following tray order per block (starting with 1AO ending with 24CI). Each hatcher trolley has twelve baskets with a capacity for 180 eggs each. Eggs of tray 1-12 were placed in incubator machine 1, eggs of tray 13-24 were placed in incubator machine 2. During this period, the incubator temperature was set at 36.7° C. and relative humidity at 70%.
Group egg weights were recorded at E0. At E7 and E18, all eggs were candled and empty eggs or eggs containing dead embryos were removed (early dead E0-E7, mid dead E8-E18). At E18 eggs were transferred to the hatching baskets after candling. At hatch (E21) the number of dead chickens, late dead embryos (E19-E21) and pipped eggs were recorded. The number of hatched chickens was recorded per replicate, as well as average chick weight. […] Sex was determined by feather sexing, female chickens were euthanized by CO2 and disposed according to local regulations. Per experimental unit, five male chickens were selected for the grow-out period and allocated to broiler grower pens. Only chickens with an average body weight, completely dry, showing active movement and with a good navel score were selected. After this selection one male chicken per experimental unit was selected for dissection. Sample chickens were individually weighed and killed by cervical dislocation to measure remaining yolk-sac weights, yolk-free body mass (“YFBM”), liver weight, chick length, and shank length of both shanks. The livers were immediately placed on dry ice and after dissection stored at −20° C. for further analysis (“SOD and GSSG”). Relative asymmetry was calculated according to the following formula:
RA=(|L−R|/[(L+R)/2])×100.

sows and piglets = test: Content of vitamins E and A in serum of sows and piglets, HPLC (Example 10); assay type: in vivo, pig; conditions: for Vitamin A in serum of piglets / Vitamin E in serum of piglets: piglets at 21 days
From the text: The performance following criteria were monitored during the trial: (i) Sows response criteria (actual parity, farrowing rate, culled sows—number and reasons, wean-to-mating interval, farrowing rate in the next cycle); (ii) litter response criteria (number of piglets, total, alive, stillborn, mummies; weight of piglets and litters; survival). The following biochemical (blood) criteria were monitored during the trial for the sows (mating, farrowing and weaning), piglets 21st day: (i) glutathione peroxidase (GPx) activity; (ii) superoxide dismutase (SOD) activity; (iii) total antioxidant status (TAS); (iv) vitamin E content; (v) vitamin A content.
To determine the oxidative status, the blood samples were collected from sows and piglets into tubes with lithium anticoagulant—received whole blood for analysis. At the same time blood samples were taken for blood clot. They were centrifuged (1500 rpm, 15 Temp. 4° C.) and obtained serum was pipetted into separate tubes.
The content of the TAS (total antioxidant status) were determined using the Antioxidant assay kit (Cat. No CS0790), the activity of SOD (superoxide dismutase) was determined using SOD determination kit 19160, the activity of GPx (glutathione Peroxide assai Cellular Activity Kit) Cat. No CGP1. The content of vitamins A and E by McMurray and Blanchflower 1979 (Journal of Chromatography 178, 525-531.). TAS
Serum samples (1 ml) was deproteinized with anhydrous ethanol (1 ml), extracted with 5 ml of n-hexane (Vortex 5′), then centrifuged (3000 rpm, 10′, temp. 4° C.). The resulting 4 ml of the supernatant were evaporated to dryness under nitrogen, and then dissolved in 1 ml of 96% ethanol and analyzed by high performance liquid chromatography (HPLC).
The contents of retinol and tocopherol was determined by reversed-phase high performance liquid chromatography (HPLC) with chromatograph SHIMADZU. Nucleosil C18 column is used, the carrier phase was methanol-water (95:5, v: v). The measurement was performed using a UV detector at a wavelength of 326 nm to determine the amount of retinol and a fluorescence detector (excitation wavelength—295 nm, emission wavelength—330 nM) to determine the tocopherol content. The concentration of retinol and tocopherol were calculated on the basis of the peak external standards (Sigma-Aldrich (□)-a-Tocopherol, Retinol Vitamin-A-alcohol).

[1] = Breeding, Group 2: vitamin E 50/75 mg/kg diet
[2] = Breeding, Group 3: vitamin E 100/150 mg/kg diet
[3] = Farrowing, Group 2: vitamin E 50/75 mg/kg diet
[4] = Farrowing, Group 3: vitamin E 100/150 mg/kg diet
[5] = Weaning, Group 2: vitamin E 50/75 mg/kg diet
[6] = Weaning, Group 3: vitamin E 100/150 mg/kg diet
[7] = Group 2: vitamin E 50/75 mg/kg sow diet
[8] = Group 3: vitamin E 100/150 mg/kg sow diet

Q: Which results are given for `Cc1c(C)c2c(c(C)c1O)CCC(C)(CCCC(C)CCCC(C)CCCC(C)C)O2` (racemic) [Vitamin E, DL-α-tocopherol]?
A: Chick length (Ross 308 embryos; vitamin E equivalence 80 ppm): 18.3 cm; Chick weight average (Ross 308 embryos; vitamin E equivalence 80 ppm): 43.8 g; Chick weight dissected chicks (Ross 308 embryos; vitamin E equivalence 80 ppm): 42.8 g; Liver weight (Ross 308 embryos; vitamin E equivalence 80 ppm): 1.2 g; Relative asymmetry (Ross 308 embryos; vitamin E equivalence 80 ppm): 2.4%; YFBM (yolk free body mass) (Ross 308 embryos; vitamin E equivalence 80 ppm): 39.6 g; Yolk weight (Ross 308 embryos; vitamin E equivalence 80 ppm): 4.2 g; Chick length (Ross 308 embryos; vitamin E equivalence 160 ppm): 18.4 cm; Chick weight average (Ross 308 embryos; vitamin E equivalence 160 ppm): 43.7 g; Chick weight dissected chicks (Ross 308 embryos; vitamin E equivalence 160 ppm): 43.6 g; Liver weight (Ross 308 embryos; vitamin E equivalence 160 ppm): 1.2 g; Relative asymmetry (Ross 308 embryos; vitamin E equivalence 160 ppm): 2.3%; YFBM (yolk free body mass) (Ross 308 embryos; vitamin E equivalence 160 ppm): 40.6 g; Yolk weight (Ross 308 embryos; vitamin E equivalence 160 ppm): 4.2 g; Egg weight EQ (Ross 308 embryos; vitamin E equivalence 80 ppm): 62.9 g; Egg weight EQ (Ross 308 embryos; vitamin E equivalence 160 ppm): 63.0 g; Relative liver weight (Ross 308 embryos; vitamin E equivalence 80 ppm): 2.8%; Relative yolk weight (Ross 308 embryos; vitamin E equivalence 80 ppm): 9.7%; Relative liver weight (Ross 308 embryos; vitamin E equivalence 160 ppm): 2.7%; Relative yolk weight (Ross 308 embryos; vitamin E equivalence 160 ppm): 9.4%; Relative chick weight (Ross 308 embryos; vitamin E equivalence 80 ppm): 69.7%; Relative chick weight (Ross 308 embryos; vitamin E equivalence 160 ppm): 69.4%; Empty eggs (Ross 308 embryos; vitamin E equivalence 80 ppm): 1.2%; Hatchability of fertile (Ross 308 embryos; vitamin E equivalence 80 ppm): 91.8%; Hatchability of total (Ross 308 embryos; vitamin E equivalence 80 ppm): 90.6%; Total Embryonic Mortality (Ross 308 embryos; vitamin E equivalence 80 ppm): 7.7%; Early Embryonic Mortality (Ross 308 embryos; vitamin E equivalence 80 ppm): 4.0%; Mid Embryonic Mortality (Ross 308 embryos; vitamin E equivalence 80 ppm): 1.6%; Late Embryonic Mortality (Ross 308 embryos; vitamin E equivalence 80 ppm): 2.7%; Empty eggs (Ross 308 embryos; vitamin E equivalence 160 ppm): 0.0%; Hatchability of fertile (Ross 308 embryos; vitamin E equivalence 160 ppm): 90.2%; Hatchability of total (Ross 308 embryos; vitamin E equivalence 160 ppm): 90.2%; Total Embryonic Mortality (Ross 308 embryos; vitamin E equivalence 160 ppm): 8.6%; Early Embryonic Mortality (Ross 308 embryos; vitamin E equivalence 160 ppm): 6.6%; Mid Embryonic Mortality (Ross 308 embryos; vitamin E equivalence 160 ppm): 0.5%; Late Embryonic Mortality (Ross 308 embryos; vitamin E equivalence 160 ppm): 1.8%; Content of Vitamin A in the serum of sows (sows and piglets; [1]): 0.15 µg/mL; Content of Vitamin E in the serum of sows (sows and piglets; [1]): 1.09 µg/mL; Content of Vitamin A in the serum of sows (sows and piglets; [2]): 0.16 µg/mL; Content of Vitamin E in the serum of sows (sows and piglets; [2]): 1.11 µg/mL; Content of Vitamin A in the serum of sows (sows and piglets; [3]): 0.11 µg/mL; Content of Vitamin E in the serum of sows (sows and piglets; [3]): 0.74 µg/mL; Content of Vitamin A in the serum of sows (sows and piglets; [4]): 0.15 µg/mL; Content of Vitamin E in the serum of sows (sows and piglets; [4]): 1.16 µg/mL; piglet serum a-tocopherol concentrations, lactation sows fed 150 mg/kg versus 75 mg/kg vitamin E (sows and piglets; P<0.001): higher; Content of Vitamin A in the serum of sows (sows and piglets; [5]): 0.15 µg/mL; Content of Vitamin E in the serum of sows (sows and piglets; [5]): 1.02 µg/mL; Content of Vitamin A in the serum of sows (sows and piglets; [6]): 0.15 µg/mL; Content of Vitamin E in the serum of sows (sows and piglets; [6]): 1.13 µg/mL; sow serum a-tocopherol (vitamin E) concentrations when vitamin E was added to the sow diets (sows and piglets; gestation and lactation, P<0.001): higher; Vitamin A in serum of piglets (sows and piglets; [7]): 0.16 µg/mL; Vitamin E in serum of piglets (sows and piglets; [7]): 1.41 µg/mL; Vitamin A in serum of piglets (sows and piglets; [8]): 0.2 µg/mL; Vitamin E in serum of piglets (sows and piglets; [8]): 1.61 µg/mL
